The target of the assay is T1, PDE4B2 (Homo sapiens, UniProt Q07343).
T1 construct: made in house; host or cells: SF21 insect cells (baculovirus, pCR-Bac vector; virus made in SF9 cells)
T1 sequence (Q07343 1-564 isoform Q07343-2): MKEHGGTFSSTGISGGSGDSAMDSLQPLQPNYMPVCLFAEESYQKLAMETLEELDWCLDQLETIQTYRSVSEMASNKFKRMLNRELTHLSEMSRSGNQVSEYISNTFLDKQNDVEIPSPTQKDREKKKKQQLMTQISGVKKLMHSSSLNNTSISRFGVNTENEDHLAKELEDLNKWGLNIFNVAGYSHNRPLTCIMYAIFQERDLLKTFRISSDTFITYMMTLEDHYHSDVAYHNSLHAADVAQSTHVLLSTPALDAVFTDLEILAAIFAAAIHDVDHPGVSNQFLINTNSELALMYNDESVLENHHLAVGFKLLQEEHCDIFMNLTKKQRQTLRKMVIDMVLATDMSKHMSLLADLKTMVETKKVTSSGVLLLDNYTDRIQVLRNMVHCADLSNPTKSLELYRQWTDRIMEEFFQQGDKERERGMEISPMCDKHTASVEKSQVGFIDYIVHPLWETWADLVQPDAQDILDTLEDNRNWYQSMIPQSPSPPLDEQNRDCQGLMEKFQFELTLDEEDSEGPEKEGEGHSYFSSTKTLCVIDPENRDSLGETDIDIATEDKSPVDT
Description: Inhibition of PDE4B2 activity, modified [3H]cAMP SPA (scintillation proximity assay) test. In kind it is biochemical. To be noted: recombinant PDE4B2 (GB no. M97515) expressed in SF21 insect cells; 0.5 μM cAMP; 15 min at 37° C.; read-out: PDE4 Inhibition [measured as −logIC50 (mol/l)] (converted). The method, then: The PDE4B2 (GB no. M97515) was a gift of Prof. M. Conti (Stanford University, USA). It was amplified from the original plasmid (pCMV5) via PCR with primers Rb9 (5′-[…]-3′) and Rb10 (5′-[…]-3′) and cloned into the pCR-Bac vector (Invitrogen, Groningen, NL).
The recombinant baculovirus was prepared by means of homologous recombination in SF9 insect cells. The expression plasmids were cotransfected with Bac-N-Blue (Invitrogen, Groningen, NL) or Baculo-Gold DNA (Pharmingen, Hamburg) using a standard protocol (Pharmingen, Hamburg). Wt virus-free recombinant virus supernatants were selected using plaque assay methods. After that, high-titre virus supernatants were prepared by amplifying 3 times. PDE4B2 was expressed in SF21 cells by infecting 2×10^6 cells/ml with an MOI (multiplicity of infection) between 1 and 10 in serum-free SF900 medium (Life Technologies, Paisley, UK). The cells were cultured at 28° C. for 48-72 hours, after which they were pelleted for 5-10 min at 1000 g and 4° C.
The SF21 insect cells were resuspended, at a concentration of approx. 10^7 cells/ml, in ice-cold ([…]) homogenization buffer (20 mM Tris, pH 8.2, containing the following additions: 140 mM NaCl, 3.8 mM KCl, 1 mM EGTA, 1 mM MgCl2, 10 mM-mercaptoethanol, 2 mM benzamidine, 0.4 mM Pefablock, 10 μM leupeptin, 10 μM pepstatin A, 5 μM trypsin inhibitor) and disrupted by ultrasonication. The homogenate was then centrifuged for 10 min at 1000×g and the supernatant was stored at −80° C. until sub-sequent use (see below). The protein content was determined by the Bradford method (BioRad, Munich) using BSA as the standard.
PDE4B2 activity was inhibited by the said compounds in a modified SPA (scintillation proximity assay) test, supplied by Amersham Biosciences (see procedural instructions “phosphodiesterase [3H]cAMP SPA enzyme assay, code TRKO 7090”), carried out in 96-well microtitre plates (MTP's). The test volume is 100 μl and contains 20 mM Tris buffer (pH 7.4), 0.1 mg of BSA (bovine serum albumin)/ml, 5 mM Mg^2+, 0.5 μM cAMP (including about 50,000 cpm of [3H]cAMP), 1 μl of the respective substance dilution in DMSO and sufficient recombinant PDE (1000×g supernatant, see above) to ensure that 10-20% of the cAMP is converted under the said experimental conditions. […] After a preincubation of 5 min at 37° C., the reaction is started by adding the substrate (cAMP) and the assays are incubated for a further 15 min; after that, they are stopped by adding SPA beads (50 μl). […] After the beads have been sedimented (>30 min), the MTP's are analyzed in commercially available luminescence detection devices. The corresponding IC50 values of the compounds for the inhibition of PDE activities are determined from the concentration-effect curves by means of non-linear regression.
On the technique in general: Scintillation proximity formats need no separation of bound from free tracer.
In the case of `CCOc1cc2c(cc1OC)C(c1ccc(C(=O)N(C(C)C)C(C)C)cc1)=N[C@@H]1CCSC[C@H]21` [Compound 1, 4-((4aR,10aR)-6-Ethoxy-7-methoxy-1,4,4a,10a-tetrahydro-2H-3-thia-10-aza-phenanthren-9-yl)-N,N-diisopropyl-benzamide], the IC50 is 0.724 nM.

`CCOc1cc2c(cc1OC)C(c1ccc(C(=O)N(C(C)C)C(C)C)cc1)=N[C@@H]1CC[S+]([O-])C[C@H]21` (single isomer, unassigned) [Compound 2]: the IC50 was 145 nM.

For `CCOc1cc2c(cc1OC)C(c1ccc(C(=O)N(C(C)C)C(C)C)cc1)=N[C@@H]1CC[S+]([O-])C[C@H]21` (single isomer, unassigned) [Compound 3], the IC50 is 3.31 nM.

Regarding `CCOc1cc2c(cc1OC)C(c1ccc(C(=O)N(C(C)C)C(C)C)cc1)=[N+]([O-])[C@@H]1CCS(=O)(=O)C[C@H]21` [Compound 5, 4-((4aR,10aR)-6-Ethoxy-7-methoxy-3,3-dioxo-10-oxy-1,2,3,4,4a,10a-hexahydro-3l^6-thia-10-aza-phenanthren-9-yl)-N,N-diisopropyl-benzamide], the IC50 is 20 nM.

For the origin of these results see US8324404B2, “3-thia-10-aza-phenanthrene derivatives” (Nycomed GmbH, priority 2004, dated 2012).
